Toxic doses and inconclusive results are not listed.

T/C data for 22 compounds are collected here from PubChem BioAssay AID248 (DTP/NCI, 2004).

The test system of the test is L1210 leukemia ip in BDF1 mice, survival T/C. Kind of test: NCI In Vivo Anticancer Drug Screen. Data for tumor model L1210 Leukemia (intraperitoneal) in B6D2F1 (BDF1) mice. Particulars: endpoint: mean survival time, higher = longer survival. A digest of the protocol: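 Transplanted-tumor mice were given test agent; controls received vehicle only. Survival readings from the two groups were divided (treated over control).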

The mark [1] stands for this setting: dose: 100.0 mg/kg/injection, schedule: Q01DX001 (ip), vehicle: saline.
Where [2] appears, read: dose: 200.0 mg/kg/injection, schedule: Q01DX001 (ip), vehicle: saline.
Where [3] appears, read: dose: 400.0 mg/kg/injection, schedule: Q01DX001 (ip), vehicle: saline.
The mark [4] stands for this setting: dose: 100.0 mg/kg/injection, schedule: Q04DX003 (ip), vehicle: Klucel (hydroxypropylcellulose) (HPC).
Where [5] appears, read: dose: 200.0 mg/kg/injection, schedule: Q04DX003 (ip), vehicle: Klucel (hydroxypropylcellulose) (HPC).
The mark [6] stands for this setting: dose: 100.0 mg/kg/injection, schedule: Q01DX001 (ip), vehicle: saline with Tween-80.
Where [7] appears, read: dose: 200.0 mg/kg/injection, schedule: Q01DX001 (ip), vehicle: saline with Tween-80.
Where [8] appears, read: dose: 25.0 mg/kg/injection, schedule: Q04DX003 (ip), vehicle: saline.
[9] abbreviates: dose: 100.0 mg/kg/injection, schedule: Q04DX003 (ip), vehicle: saline.
Where [10] appears, read: dose: 200.0 mg/kg/injection, schedule: Q04DX003 (ip), vehicle: saline with Tween-80.
[11] abbreviates: dose: 100.0 mg/kg/injection, schedule: Q01DX009 (ip), vehicle: Klucel (hydroxypropylcellulose) (HPC).
The mark [12] stands for this setting: dose: 200.0 mg/kg/injection, schedule: Q01DX009 (ip), vehicle: Klucel (hydroxypropylcellulose) (HPC).
[13] abbreviates: dose: 25.0 mg/kg/injection, schedule: Q01DX009 (ip), vehicle: saline.

For the compound `CCCC(Sc1ncnc2nc[nH]c12)C(=O)O` (stereo not drawn), the T/C reads like this: (dose: 100.0 mg/kg/injection, schedule: Q01DX001 (ip), vehicle: carboxymethylcellulose (CMC)) 95 % of control; (dose: 200.0 mg/kg/injection, schedule: Q01DX001 (ip), vehicle: carboxymethylcellulose (CMC)) 98 % of control; (dose: 400.0 mg/kg/injection, schedule: Q01DX001 (ip), vehicle: carboxymethylcellulose (CMC)) 103 % of control.
As to `COC1/C=C/OC2(C)Oc3c(C)c(O)c4c(O)c(c(/C=N/N(C)c5ncnc6c5ncn6C5OC(CO)C(O)C5O)c(O)c4c3C2=O)NC(=O)C(C)=C/C=C/C(C)C(O)C(C)C(O)C(C)C(OC(C)=O)C1C` (stereo not drawn), the T/C was 87 % of control (dose: 200.0 mg/kg/injection, schedule: Q01DX009 (ip), vehicle: saline) and 94 % of control (dose: 400.0 mg/kg/injection, schedule: Q01DX009 (ip), vehicle: saline).
On to `CCOP(=O)(Cc1c(Cl)c(Cl)c(CP(=O)(OCC)OCC)c(Cl)c1Cl)OCC`, for which the T/C by setting is: under setting [1], 107 % of control; under setting [2], 98 % of control; under setting [3], 98 % of control.
For the compound `COCCOC(N)=O`, the T/C was 105 % of control under setting [1], 115 % of control under setting [2] and 95 % of control under setting [3].
`CN1CCN=C1c1ccc(NC(=O)c2cccc(C(=O)Nc3ccc(C4=NCCN4C)cc3)c2)cc1`: the T/C (dose: 1.88 mg/kg/injection, schedule: Q01DX Z (ip), vehicle: saline) is 107 % of control; the T/C (dose: 3.75 mg/kg/injection, schedule: Q01DX Z (ip), vehicle: saline) is 101 % of control; the T/C (dose: 7.5 mg/kg/injection, schedule: Q01DX Z (ip), vehicle: saline) was 122 % of control; the T/C (dose: 30.0 mg/kg/injection, schedule: Q01DX Z (ip), vehicle: saline) is 154 % of control; the T/C (dose: 60.0 mg/kg/injection, schedule: Q01DX Z (ip), vehicle: saline) was 234 % of control; the T/C (dose: 120.0 mg/kg/injection, schedule: Q01DX Z (ip), vehicle: saline) was 171 % of control. Moreover, the T/C was 119 % of control (dose: 240.0 mg/kg/injection, schedule: Q01DX Z (ip), vehicle: saline) and 106 % of control (dose: 480.0 mg/kg/injection, schedule: Q01DX Z (ip), vehicle: saline).
For `O=P1(CCc2ccc(Br)cc2)CC(Br)C(Br)C1` (stereo not drawn), the T/C by setting is: under setting [4], 104 % of control; under setting [5], 106 % of control; (dose: 400.0 mg/kg/injection, schedule: Q04DX003 (ip), vehicle: Klucel (hydroxypropylcellulose) (HPC)) 96 % of control.
`C=C1CCC(c2ccccc2)N(C)C1=O` (stereo not drawn): the T/C by setting is: (dose: 25.0 mg/kg/injection, schedule: Q01DX001 (ip), vehicle: saline with Tween-80) 104 % of control; (dose: 50.0 mg/kg/injection, schedule: Q01DX001 (ip), vehicle: saline with Tween-80) 101 % of control; under setting [6], 98 % of control; under setting [7], 98 % of control.
For the compound `COC(=O)C1CCC[N+](C)(C)C1` (stereo not drawn), the T/C runs as follows: under setting [8], 95 % of control; (dose: 50.0 mg/kg/injection, schedule: Q04DX003 (ip), vehicle: saline) 97 % of control; under setting [9], 94 % of control.
Regarding `CC(C)c1ccccc(=O)c1O.CC(C)c1ccccc(=O)c1O.[Cu]`, the T/C under setting [10] is 91 % of control.
For `CN1CCC(OC(=O)C(O)C2CCCCC2)CC1` (stereo not drawn), the T/C under setting [4] was 104 % of control and the T/C under setting [5] was 103 % of control.
Consider `CS(=N)(=O)c1ccccc1` (stereo not drawn), for which the T/C is 99 % of control (dose: 100.0 mg/kg/injection, schedule: Q01DX009 (ip), vehicle: other); 97 % of control under setting [9]; 95 % of control (dose: 200.0 mg/kg/injection, schedule: Q01DX009 (ip), vehicle: other); 100 % of control (dose: 200.0 mg/kg/injection, schedule: Q04DX003 (ip), vehicle: saline); 97 % of control (dose: 400.0 mg/kg/injection, schedule: Q01DX009 (ip), vehicle: other); 97 % of control (dose: 400.0 mg/kg/injection, schedule: Q04DX003 (ip), vehicle: saline).
`C/C(Cc1cc(C)nc(N)n1)=N\Nc1ccccc1`: the T/C runs as follows: (dose: 6.25 mg/kg/injection, schedule: Q01DX009 (ip), vehicle: Klucel (hydroxypropylcellulose) (HPC)) 93 % of control; (dose: 12.5 mg/kg/injection, schedule: Q01DX009 (ip), vehicle: Klucel (hydroxypropylcellulose) (HPC)) 115 % of control; (dose: 25.0 mg/kg/injection, schedule: Q01DX009 (ip), vehicle: Klucel (hydroxypropylcellulose) (HPC)) 91 % of control.
Consider `CC(=O)OI(OC(C)=O)c1ccccc1`, for which the T/C reads like this: under setting [11], 98 % of control; under setting [12], 102 % of control.
For the compound `CCCCC(/C=N\NC(=O)c1ccc[n+](C)c1)=C/c1ccccc1`, the T/C was 96 % of control under setting [6] and 102 % of control under setting [7].
Consider `CCOC(=O)N1C2OC(C(COC(C)=O)=C2COC(C)=O)N1C(=O)OCC`, for which the T/C runs as follows: (dose: 12.5 mg/kg/injection, schedule: Q04DX002 (ip), vehicle: saline) 99 % of control; (dose: 25.0 mg/kg/injection, schedule: Q04DX002 (ip), vehicle: saline) 99 % of control; (dose: 50.0 mg/kg/injection, schedule: Q04DX002 (ip), vehicle: saline) 99 % of control.
Consider `Cc1cn(C2CC(F)C(CO)O2)c(=O)[nH]c1=O` (stereo not drawn), for which the T/C runs as follows: (dose: 12.5 mg/kg/injection, schedule: Q01DX009 (ip), vehicle: saline) 108 % of control; under setting [13], 102 % of control; (dose: 50.0 mg/kg/injection, schedule: Q01DX009 (ip), vehicle: saline) 117 % of control; (dose: 78.0 mg/kg/injection, schedule: Q01DX009 (ip), vehicle: saline) 107 % of control; (dose: 100.0 mg/kg/injection, schedule: Q01DX009 (ip), vehicle: saline) 121 % of control; (dose: 130.0 mg/kg/injection, schedule: Q01DX009 (ip), vehicle: saline) 115 % of control. Further, the T/C (dose: 360.0 mg/kg/injection, schedule: Q01DX009 (ip), vehicle: saline) was 109 % of control.
On to `Clc1cc(Cl)c(OCC#CI)cc1Cl`, for which the T/C reads like this: (dose: 50.0 mg/kg/injection, schedule: Q01DX001 (ip), vehicle: saline) 104 % of control; under setting [1], 98 % of control; under setting [2], 93 % of control; under setting [3], 89 % of control.
As to `O=P(Cc1ccccc1)(Oc1ccccc1)Oc1ccccc1`, the T/C is 91 % of control under setting [11]; 94 % of control under setting [12]; 91 % of control (dose: 400.0 mg/kg/injection, schedule: Q01DX009 (ip), vehicle: Klucel (hydroxypropylcellulose) (HPC)).
As for `CCCOCC(O)CNCCN` (stereo not drawn), the T/C was 98 % of control under setting [11] and 92 % of control under setting [12].
In the case of `COc1ccc(C(=O)C(=O)c2ccccc2Cl)cc1`, the T/C is, setting by setting: (dose: 100.0 mg/kg/injection, schedule: Q01DX005 (ip), vehicle: saline with Tween-80) 104 % of control; (dose: 100.0 mg/kg/injection, schedule: Q01DX009 (ip), vehicle: saline with Tween-80) 96 % of control; (dose: 200.0 mg/kg/injection, schedule: Q01DX005 (ip), vehicle: saline with Tween-80) 101 % of control; (dose: 200.0 mg/kg/injection, schedule: Q01DX009 (ip), vehicle: saline with Tween-80) 107 % of control; (dose: 400.0 mg/kg/injection, schedule: Q01DX005 (ip), vehicle: saline with Tween-80) 101 % of control; (dose: 400.0 mg/kg/injection, schedule: Q01DX009 (ip), vehicle: saline with Tween-80) 100 % of control.
On to `C1CCCCCC(N2CCCC2)CCCCC1`, for which the T/C was 107 % of control (dose: 6.0 mg/kg/injection, schedule: Q01DX009 (ip), vehicle: saline); 102 % of control (dose: 12.0 mg/kg/injection, schedule: Q01DX009 (ip), vehicle: saline); 100 % of control (dose: 12.5 mg/kg/injection, schedule: Q04DX003 (ip), vehicle: saline); 100 % of control under setting [13]; 95 % of control under setting [8].
For `Cc1ccc(S(=O)(=O)OCCOCCOS(=O)(=O)c2ccc(C)cc2)cc1`, the T/C by setting is: (dose: 100.0 mg/kg/injection, schedule: Q04DX003 (ip), vehicle: saline with Tween-80) 100 % of control; under setting [10], 104 % of control; (dose: 400.0 mg/kg/injection, schedule: Q04DX003 (ip), vehicle: saline with Tween-80) 100 % of control.
